The values that follow come from ChEMBL document CHEMBL1141055, “Discovery of novel conformationally restricted diazocan peptidomimetics as inhibitors of interleukin-1beta synthesis” (Bioorg Med Chem Lett, 2005).

SMILES strings stand for the structures. Where only a bound is given, the exact number is not on record here.

One test has as its system THP-1. Description: Inhibition of 1 ug/mL LPS-induced IL1-beta production in human monocytic cells after 4 hrs. It counts as functional, cell-based. The settings on record: THP-1, 4 h.
The next test concerns the target Caspase-8 (Homo sapiens, UniProt Q14790). Description: Inhibition of caspase 8 using fluorogenic substrate and BMG Fluostar plate reader for 30 min at 37 degree C.
A further test concerns the target T1, Caspase-1 (Homo sapiens, UniProt P29466).
T1 sequence (P29466 whole entry): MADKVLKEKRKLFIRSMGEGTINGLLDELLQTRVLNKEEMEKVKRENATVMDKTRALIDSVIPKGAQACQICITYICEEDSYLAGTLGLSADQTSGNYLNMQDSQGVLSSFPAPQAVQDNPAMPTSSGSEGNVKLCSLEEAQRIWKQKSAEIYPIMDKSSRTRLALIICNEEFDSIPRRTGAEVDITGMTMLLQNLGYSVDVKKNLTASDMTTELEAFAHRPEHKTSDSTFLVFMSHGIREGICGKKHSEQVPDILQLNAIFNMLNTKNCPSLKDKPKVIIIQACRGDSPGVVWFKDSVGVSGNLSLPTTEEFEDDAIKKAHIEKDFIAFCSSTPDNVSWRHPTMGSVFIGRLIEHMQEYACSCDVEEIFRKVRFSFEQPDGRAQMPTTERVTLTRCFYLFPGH
Briefly: Inhibition of caspase-1 using fluorogenic substrate and BMG Fluostar plate reader for 30 min at 37 degree C.

A further test deals with T2, Caspase-3 (Homo sapiens, UniProt P42574).
T2 sequence (P42574 whole entry): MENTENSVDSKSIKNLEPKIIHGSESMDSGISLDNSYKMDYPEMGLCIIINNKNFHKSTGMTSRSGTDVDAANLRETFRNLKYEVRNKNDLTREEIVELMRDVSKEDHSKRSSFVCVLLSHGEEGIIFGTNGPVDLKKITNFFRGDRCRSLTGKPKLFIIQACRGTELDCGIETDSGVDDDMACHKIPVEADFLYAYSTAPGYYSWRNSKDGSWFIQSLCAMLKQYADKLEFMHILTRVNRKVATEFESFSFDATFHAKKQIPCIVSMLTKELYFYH
Description: Inhibition of caspase 3 using fluorogenic substrate and BMG Fluostar plate reader for 30 min at 37 degree C.

Caspase-8, sequence (Q14790 217-374 limits assumed): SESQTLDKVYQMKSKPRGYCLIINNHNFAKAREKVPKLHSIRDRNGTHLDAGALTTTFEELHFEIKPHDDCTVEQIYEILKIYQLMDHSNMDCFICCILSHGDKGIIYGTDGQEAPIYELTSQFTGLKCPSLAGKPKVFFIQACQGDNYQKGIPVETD
Caspase-8, sequence (Q14790 385-479 limits assumed): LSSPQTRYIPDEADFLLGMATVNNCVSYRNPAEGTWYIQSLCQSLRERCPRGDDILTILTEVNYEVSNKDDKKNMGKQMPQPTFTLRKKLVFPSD

The molecule `O=C(CN1CCCN(C(=O)C2CCCCC2)C[C@H](NC(=O)c2ccc3ccccc3c2)C1=O)N[C@H]1CC(=O)OC1O` (stereo partly specified) returned an IC50 with THP-1 of 577 nM.

Molecule `O=C(CN1CCCN(C(=O)Cc2ccccc2)C[C@H](NC(=O)c2ccc3ccccc3c2)C1=O)N[C@H]1CC(=O)OC1O` (stereo partly specified) displayed an IC50 in the test on THP-1 of 808 nM.

Take `CC(=O)N1CCCN(CC(=O)N[C@H]2CC(=O)OC2O)C(=O)[C@@H](NC(=O)c2ccc3ccccc3c2)C1` (stereo partly specified): the IC50 in the test with THP-1 stood at 216 nM.

For the molecule `O=C(CN1CCCN(C(=O)c2cccc(C(F)(F)F)c2)C[C@H](NC(=O)c2ccc3ccccc3c2)C1=O)N[C@H]1CC(=O)OC1O` (stereo partly specified), the IC50 with THP-1 worked out at 1740 nM.

Consider `Cc1ccc(Cl)cc1C(=O)N1CCCN(CC(=O)N[C@H]2CC(=O)OC2O)C(=O)[C@@H](NC(=O)c2ccc3ccccc3c2)C1` (stereo partly specified), for which, in the test on THP-1, the concentration for half-maximal inhibition (IC50) is above 2500 nM.

In the test with THP-1, `O=CN1CCCN(CC(=O)N[C@H]2CC(=O)OC2O)C(=O)[C@@H](NC(=O)c2ccc3ccccc3c2)C1` (stereo partly specified) came in with an IC50 of 219 nM.

For `O=C(CN1CCCN(C(=O)N2CCOCC2)C[C@H](NC(=O)c2ccc3ccccc3c2)C1=O)N[C@H]1CC(=O)OC1O` (stereo partly specified), the concentration for half-maximal inhibition (IC50) was above 10000 nM against Caspase-8, 224 nM in the test with THP-1, 44 nM at Caspase-1 and above 10000 nM at Caspase-3.

Take `O=C(CN1CCCN(C(=O)c2ccccc2)C[C@H](NC(=O)c2cccc(C(F)(F)F)c2)C1=O)N[C@H]1CC(=O)OC1O` (stereo partly specified): it took 1020 nM to reach half-maximal inhibition with THP-1 (IC50).

With `O=C(CN1CCCN(C(=O)c2ccccc2)C[C@H](NC(=O)c2nccc3ccccc23)C1=O)N[C@H]1CC(=O)OC1O` (stereo partly specified), the 50% inhibitory concentration (IC50) at Caspase-8 is above 10000 nM; in the test on THP-1, 280 nM; at Caspase-1 it was 30 nM; on Caspase-3, above 10000 nM.

As for `O=C(CN1CCCN(C(=O)c2ccccc2)C[C@H](NC(=O)c2ccc3ccccc3c2)C1=O)N[C@H]1CC(=O)OC1O` (stereo partly specified), the IC50 against Caspase-8 was above 10000 nM; with THP-1 it was 205 nM; against Caspase-1, 19 nM; against Caspase-3, above 10000 nM.

`O=C(CN1CCCN(C(=O)c2ccccc2)C[C@H](NC(=O)c2cc3ccccc3s2)C1=O)N[C@H]1CC(=O)OC1O` (stereo partly specified) showed an IC50 in the test on THP-1 of 560 nM.

Regarding `COc1cccc(C(=O)N2CCCN(CC(=O)N[C@H]3CC(=O)OC3O)C(=O)[C@@H](NC(=O)c3ccc4ccccc4c3)C2)c1` (stereo partly specified), the IC50 on Caspase-8 was above 10000 nM; with THP-1, 229 nM; at Caspase-1, 15 nM; against Caspase-3, above 10000 nM.

Regarding `O=C(CN1CCCN(C(=O)c2cccc(F)c2)C[C@H](NC(=O)c2ccc3ccccc3c2)C1=O)N[C@H]1CC(=O)OC1O` (stereo partly specified), the IC50 at Caspase-8 is above 10000 nM; with THP-1 it was 297 nM; on Caspase-1 it was 22 nM; against Caspase-3, above 10000 nM.

With `COc1ccccc1C(=O)N1CCCN(CC(=O)N[C@H]2CC(=O)OC2O)C(=O)[C@@H](NC(=O)c2ccc3ccccc3c2)C1` (stereo partly specified), the IC50 against Caspase-8 was above 10000 nM; in the test with THP-1, 246 nM; against Caspase-1, 38 nM; against Caspase-3 it was above 10000 nM.

As for `O=C(CN1CCCN(C(=O)N2CCNCC2)C[C@H](NC(=O)c2ccc3ccccc3c2)C1=O)N[C@H]1CC(=O)OC1O` (stereo partly specified), the IC50 against Caspase-8 was above 10000 nM; in the test on THP-1 it was 285 nM; against Caspase-1, 24 nM; at Caspase-3, above 10000 nM.

Molecule `O=C(CN1CCCN(C(=O)c2ccccc2)C[C@H](NC(=O)c2ccccc2)C1=O)N[C@H]1CC(=O)OC1O` (stereo partly specified) showed an IC50 with THP-1 of 1020 nM.

In the test with THP-1, `O=C(CN1CCCN(C(=O)c2ccccc2C(F)(F)F)C[C@H](NC(=O)c2ccc3ccccc3c2)C1=O)N[C@H]1CC(=O)OC1O` (stereo partly specified) yielded an IC50 of 1520 nM. This IC50 and that of the molecule before are within 1.5-fold of each other.

The molecule `Cc1ccc(Cl)cc1C(=O)N[C@H]1CN(C(=O)c2ccccc2)CCCN(CC(=O)N[C@H]2CC(=O)OC2O)C1=O` (stereo partly specified) showed an IC50 in the test with THP-1 of 298 nM.

For the molecule `CCO[C@@H]1OC(=O)C[C@@H]1NC(=O)[C@@H]1CCCN2C(=O)CC[C@H](NC(=O)c3nccc4ccccc34)C(=O)N12` [PRALNACASAN], the IC50 in the test on THP-1 worked out at 120 nM; at Caspase-1, 2 nM.

As usually defined, the IC50 is the concentration that inhibits the measured activity by half. A high value points to a need for much substance.
